Results from the NIST ThermoML archive (doi:10.1021/je060271a).

Settings: 303.15 K, Liquid, Vibrating tube method

CCCCC(=O)OCC(COC(=O)CCCC)(COC(=O)CCCC)COC(=O)CCCC [pentaerythritol tetrapentanoate]
Settings | mass density [kg/m3]
751.89 kPa | 1011.3
752.93 kPa | 1011.3
753.46 kPa | 1011.4
754.85 kPa | 1011.5
756.07 kPa | 1011.3
757.1 kPa | 1011.2
758.15 kPa | 1011.2
759.55 kPa | 1011.4
760.59 kPa | 1011.3
761.46 kPa | 1011.3
762.5 kPa | 1011.4
763.72 kPa | 1011.3
764.76 kPa | 1011.3
765.97 kPa | 1011.4
767.19 kPa | 1011.3
768.22 kPa | 1011.4
769.27 kPa | 1011.3
770.14 kPa | 1011.4
771.18 kPa | 1011.4
772.57 kPa | 1011.4
773.96 kPa | 1011.4
775 kPa | 1011.3
776.04 kPa | 1011.3
777.44 kPa | 1011.4
778.31 kPa | 1011.3
779.51 kPa | 1011.4
781.59 kPa | 1011.4
782.99 kPa | 1011.3
784.03 kPa | 1011.3
785.06 kPa | 1011.2
786.46 kPa | 1011.3
787.68 kPa | 1011.4
788.72 kPa | 1011.4
790.1 kPa | 1011.3
793.58 kPa | 1011.4
796.19 kPa | 1011.4
797.22 kPa | 1011.4
798.28 kPa | 1011.4
799.66 kPa | 1011.4
800.87 kPa | 1011.4
802.26 kPa | 1011.3
803.13 kPa | 1011.3
804.36 kPa | 1011.3
806.1 kPa | 1011.3
807.3 kPa | 1011.2
808.17 kPa | 1011.4
809.57 kPa | 1011.4
810.78 kPa | 1011.4
811.81 kPa | 1011.4
813.39 kPa | 1011.4
814.44 kPa | 1011.4
815.81 kPa | 1011.4
816.86 kPa | 1011.3
818.08 kPa | 1011.4
819.64 kPa | 1011.3
820.86 kPa | 1011.4
822.25 kPa | 1011.3
823.47 kPa | 1011.4
824.68 kPa | 1011.4
826.25 kPa | 1011.3
827.28 kPa | 1011.4
828.32 kPa | 1011.4
830.07 kPa | 1011.4
831.46 kPa | 1011.3
832.68 kPa | 1011.3
834.23 kPa | 1011.4
835.46 kPa | 1011.3
836.32 kPa | 1011.3
837.71 kPa | 1011.3
839.27 kPa | 1011.4
840.67 kPa | 1011.4
841.53 kPa | 1011.4
843.1 kPa | 1011.5
844.31 kPa | 1011.4
846.05 kPa | 1011.4
847.44 kPa | 1011.4
848.82 kPa | 1011.4
850.22 kPa | 1011.5
851.43 kPa | 1011.4
852.99 kPa | 1011.3
854.55 kPa | 1011.4
855.43 kPa | 1011.3
856.64 kPa | 1011.4
858.56 kPa | 1011.4
859.94 kPa | 1011.3
861.33 kPa | 1011.4
862.89 kPa | 1011.4
864.28 kPa | 1011.4
865.5 kPa | 1011.5
866.89 kPa | 1011.3
868.64 kPa | 1011.3
869.85 kPa | 1011.3
871.4 kPa | 1011.4
872.8 kPa | 1011.3
874.36 kPa | 1011.4
875.58 kPa | 1011.4
877.31 kPa | 1011.4
878.7 kPa | 1011.3
880.09 kPa | 1011.4
881.48 kPa | 1011.3
882.37 kPa | 1011.5
884.28 kPa | 1011.4
885.67 kPa | 1011.4
886.88 kPa | 1011.4
888.45 kPa | 1011.5
890 kPa | 1011.4
891.23 kPa | 1011.4
892.79 kPa | 1011.4
894.35 kPa | 1011.5
895.75 kPa | 1011.3
897.31 kPa | 1011.5
899.39 kPa | 1011.5
900.97 kPa | 1011.4
902.17 kPa | 1011.4
903.4 kPa | 1011.4
904.79 kPa | 1011.4
906.87 kPa | 1011.4
908.62 kPa | 1011.4
910 kPa | 1011.4
911.39 kPa | 1011.4
913.13 kPa | 1011.4
914.69 kPa | 1011.5
916.25 kPa | 1011.5
917.82 kPa | 1011.4
919.55 kPa | 1011.4
921.29 kPa | 1011.4
922.68 kPa | 1011.4
924.26 kPa | 1011.5
925.81 kPa | 1011.4
927.54 kPa | 1011.6
929.11 kPa | 1011.4
931.03 kPa | 1011.4
932.76 kPa | 1011.6
934.31 kPa | 1011.4
936.05 kPa | 1011.5
937.62 kPa | 1011.4
939.53 kPa | 1011.5
941.27 kPa | 1011.5
943 kPa | 1011.4
944.4 kPa | 1011.5
946.13 kPa | 1011.4
947.18 kPa | 1011.5
949.26 kPa | 1011.4
950.82 kPa | 1011.4
952.73 kPa | 1011.5
954.48 kPa | 1011.5
956.38 kPa | 1011.4
958.11 kPa | 1011.4
960.21 kPa | 1011.4
961.77 kPa | 1011.5
963.32 kPa | 1011.5
965.24 kPa | 1011.4
967.49 kPa | 1011.5
969.05 kPa | 1011.5
970.44 kPa | 1011.4
972.01 kPa | 1011.5
974.27 kPa | 1011.4
976.34 kPa | 1011.4
977.92 kPa | 1011.4
979.13 kPa | 1011.6
981.39 kPa | 1011.5
983.3 kPa | 1011.5
985.21 kPa | 1011.5
987.46 kPa | 1011.4
989.21 kPa | 1011.5
990.77 kPa | 1011.5
992.34 kPa | 1011.5
994.41 kPa | 1011.4
996.16 kPa | 1011.4
998.06 kPa | 1011.5
1000.1 kPa | 1011.3
1002.1 kPa | 1011.3
1004.3 kPa | 1011.4
1005.9 kPa | 1011.4
1007.8 kPa | 1011.4
1009.4 kPa | 1011.5
1011.3 kPa | 1011.5
1014 kPa | 1011.5
1015.8 kPa | 1011.5
1017.3 kPa | 1011.5
1019.2 kPa | 1011.5
1021.5 kPa | 1011.4
1023.4 kPa | 1011.5
1025.3 kPa | 1011.5
1027.4 kPa | 1011.6
1029.5 kPa | 1011.5
1031.2 kPa | 1011.6
1033.5 kPa | 1011.5
1035.6 kPa | 1011.5
1036.8 kPa | 1011.4
1039.1 kPa | 1011.5
1041.1 kPa | 1011.6
1042.9 kPa | 1011.6
1045 kPa | 1011.5
1047.6 kPa | 1011.6
1049.5 kPa | 1011.5
1051.4 kPa | 1011.4
1053.7 kPa | 1011.5
1055.7 kPa | 1011.5
1058 kPa | 1011.5
1059.7 kPa | 1011.5
1062.2 kPa | 1011.5
1064.4 kPa | 1011.5
1066.7 kPa | 1011.6
1068.7 kPa | 1011.5
1071 kPa | 1011.5
1072.9 kPa | 1011.6
1075.2 kPa | 1011.5
1077.2 kPa | 1011.5
1078.8 kPa | 1011.5
1081.6 kPa | 1011.5
1083.8 kPa | 1011.5
1085.9 kPa | 1011.5
1088 kPa | 1011.6
1090.6 kPa | 1011.6
1092.7 kPa | 1011.6
1095 kPa | 1011.5
1097.4 kPa | 1011.5
1099.5 kPa | 1011.5
1101.7 kPa | 1011.5
1104 kPa | 1011.6
1106.4 kPa | 1011.5
1108.7 kPa | 1011.5
1111.1 kPa | 1011.5
1113.4 kPa | 1011.5
1116 kPa | 1011.5
1117.9 kPa | 1011.5
1120.7 kPa | 1011.6
1122.8 kPa | 1011.6
1124.8 kPa | 1011.5
1127.3 kPa | 1011.5
1129.7 kPa | 1011.5
1132.3 kPa | 1011.6
1134.6 kPa | 1011.7
1137.5 kPa | 1011.5
1139.8 kPa | 1011.6
1141.8 kPa | 1011.5
1144.1 kPa | 1011.7
1147.1 kPa | 1011.4
1149.3 kPa | 1011.6
1151.6 kPa | 1011.6
1153.8 kPa | 1011.5
1156.6 kPa | 1011.6
1159 kPa | 1011.6
1162.2 kPa | 1011.6
1164.3 kPa | 1011.8
1166.9 kPa | 1011.6
1169.3 kPa | 1011.6
1171.7 kPa | 1011.7
1174.3 kPa | 1011.6
1176.6 kPa | 1011.5
1179.2 kPa | 1011.6
1182 kPa | 1011.6
1184.7 kPa | 1011.6
1187.2 kPa | 1011.7
1190.1 kPa | 1011.7
1192.6 kPa | 1011.7
1195.2 kPa | 1011.6
1198.1 kPa | 1011.6
1200.7 kPa | 1011.6
1203.2 kPa | 1011.6
1206.3 kPa | 1011.6
1208.5 kPa | 1011.6
1211.3 kPa | 1011.6
1213.9 kPa | 1011.6
1216.9 kPa | 1011.7
1219.5 kPa | 1011.7
1222.1 kPa | 1011.6
1224.7 kPa | 1011.7
1227.8 kPa | 1011.7
1230.6 kPa | 1011.7
1233.4 kPa | 1011.6
1236.1 kPa | 1011.6
1239.1 kPa | 1011.7
1241.9 kPa | 1011.6
1244.7 kPa | 1011.6
1248 kPa | 1011.6
1250.6 kPa | 1011.7
1253.5 kPa | 1011.6
1256.1 kPa | 1011.6
1259.1 kPa | 1011.6
1262 kPa | 1011.6
1265 kPa | 1011.7
1268.1 kPa | 1011.6
1271 kPa | 1011.6
1274 kPa | 1011.7
1277 kPa | 1011.6
1279.4 kPa | 1011.6
1283 kPa | 1011.7
1286 kPa | 1011.7
1289.1 kPa | 1011.6
1292.6 kPa | 1011.7
1296 kPa | 1011.7
1299.7 kPa | 1011.6
1302.8 kPa | 1011.7
1305.6 kPa | 1011.7
1308.5 kPa | 1011.6
1312.2 kPa | 1011.7
1315 kPa | 1011.8
1318.1 kPa | 1011.7
1321.4 kPa | 1011.7
1324.3 kPa | 1011.7
1327.8 kPa | 1011.6
1331.1 kPa | 1011.7
1334.2 kPa | 1011.8
1337.4 kPa | 1011.6
1340.5 kPa | 1011.6
1343.8 kPa | 1011.7
1347.3 kPa | 1011.8
1350.2 kPa | 1011.7
1354.2 kPa | 1011.7
1357.2 kPa | 1011.6
1360.5 kPa | 1011.7
1363.6 kPa | 1011.7
1367.4 kPa | 1011.7
1371.1 kPa | 1011.7
1373.8 kPa | 1011.7
1377.5 kPa | 1011.7
1381.3 kPa | 1011.8
1384.2 kPa | 1011.7
